From US20250092065A1, “2-(INDAZOL-5-YL)-6-(PIPERIDIN-4-YL)-1,7-NAPHTHYRIDINE DERIVATIVES AND RELATED COMPOUNDS AS MODULATORS FOR SPLICING NUCLEIC ACIDS AND FOR THE TREATMENT OF PROLIFERATIVE DISEASES” (REMIX THERAPEUTICS INC., priority 2022, published 2025)
pIC50: −log10 of the molar value. Read-outs that look alike come from different tables or passages of the source.

What was measured:
HTT mRNA = experiment: RT-qPCR splicing assay, HTT mRNA canonical (CJ) and alternative (AJ) junction; format: cell-based, human; conditions: for AC50: HTT alternative junction mRNA, read-out: HTT AJ (increase in AJ mRNA, AC50)
Method in brief: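 Both isoforms, CJ and AJ, read by qPCR from crude lysates of treated A673 or K562 cells; 24 h, 37 °C, maximum 10 uM. Normalization: housekeeper ΔCt, then DMSO ΔΔCt.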

Target C = experiment: RT-qPCR canonical junction panel assay, Target C mRNA; format: cell-based; conditions: Table 4, read-out: Target C IC50 (decrease in CJ mRNA levels)
Method in brief: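 IC50 is the concentration giving 50% CJ decrease, from a 4-parameter logistic fit of percent response; response derived from ΔΔCt against housekeeper and DMSO over a fixed ΔCt window, with canonical exon-junction qPCR in compound-treated K562 or A673 cells.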

[1] = Homo sapiens, HTT canonical junction mRNA, RT-qPCR, read-out: HTT CJ (decrease in CJ mRNA levels, IC50)
[2] = Homo sapiens, canonical junction qPCR panel, Table 4, read-out: HTT IC50 (decrease in CJ mRNA levels)

pIC50 (HTT mRNA; [1]) | pIC50 (HTT mRNA; [2]) | pIC50 (Target C) | pIC50 (HTT mRNA; HTT canonical junction mRNA, RT-qPCR, read-out: HTT CJ (decrease in CJ mRNA levels, IC50)) | pIC50 (HTT mRNA; canonical junction qPCR panel, Table 4, read-out: HTT IC50 (decrease in CJ mRNA levels)) | Structure (SMILES) | AC50 (HTT mRNA; Homo sapiens, RT-qPCR) | AC50 (HTT mRNA; RT-qPCR)
> 7.00 | > 7.00 | > 7.00 | – | – | Cn1cc2cc(-c3ccc4nc(N5CCC(NC6CC6)C5)ccc4n3)c(O)c(F)c2n1 (racemic) [Compound 287, 5-{6-[3-(cyclopropylamino)pyrrolidin-1-yl]-1,5-naphthyridin-2-yl}-7-fluoro-2-methylindazol-6-ol; trifluoroacetic acid] | < 100 nM | –
> 7.00 | > 7.00 | > 7.00 | – | – | CC(C)N[C@@H]1CCN(c2ccc3nc(-c4cc5cn(C)nc5c(F)c4O)ccc3n2)C1 (single isomer, unassigned) [Compound 285] | < 100 nM | –
> 7.00 | > 7.00 | > 7.00 | – | – | CC(C)N[C@H]1CCN(c2ccc3nc(-c4cc5cn(C)nc5c(F)c4O)ccc3n2)C1 (single isomer, unassigned) [Compound 286] | < 100 nM | –
> 7.00 | > 7.00 | > 7.00 | – | – | Cc1c(O)c(-c2ccc3nc(N4CC[C@@H](NC5CCC5)C4)ccc3n2)cc2cn(C)nc12 (single isomer, unassigned) [Compound 289] | < 100 nM | –
> 7.00 | > 7.00 | > 7.00 | – | – | Cc1c(O)c(-c2ccc3nc(N4CC[C@H](NC5CCC5)C4)ccc3n2)cc2cn(C)nc12 (single isomer, unassigned) [Compound 290] | < 100 nM | –
6.00 to 7.00 | 6.00 to 7.00 | 6.00 to 7.00 | – | – | Cc1nc2cc(O)c(-c3ccc4nc(N5CCC(NCC6CC6)C5)ccc4n3)cc2o1 (single isomer, unassigned) [Compound 291, 6-(6-{3-[(cyclopropylmethyl)amino]pyrrolidin-1-yl}-1,5-naphthyridin-2-yl)-2-methyl-1,3-benzoxazol-5-ol] | 100 to 1000 nM | –
– | – | 6.00 to 7.00 | 6.00 to 7.00 | 6.00 to 7.00 | Cc1nc2cc(O)c(-c3ccc4nc(N5CCC(NCC6CC6)C5)ccc4n3)cc2o1 (single isomer, unassigned) [Compound 292, 6-(6-{3-[(cyclopropylmethyl)amino]pyrrolidin-1-yl}-1,5-naphthyridin-2-yl)-2-methyl-1,3-benzoxazol-5-ol] | – | 100 to 1000 nM
> 7.00 | > 7.00 | 6.00 to 7.00 | – | – | Cc1nc2c(C)c(O)c(-c3ccc4nc(N5CC[C@@H](NCC6CC6)C5)ccc4n3)cc2o1 (single isomer, unassigned) [Compound 295] | < 100 nM | –
> 7.00 | > 7.00 | > 7.00 | – | – | Cc1nc2c(C)c(O)c(-c3ccc4nc(N5CC[C@H](NCC6CC6)C5)ccc4n3)cc2o1 (single isomer, unassigned) [Compound 296] | < 100 nM | –
> 7.00 | > 7.00 | > 7.00 | – | – | Cn1cc2cc(-c3ccc4nc(N5CC[C@@H](N[C@H]6C[C@@H](F)C6)C5)ccc4n3)c(O)cc2n1 (single isomer, unassigned) [Compound 300] | < 100 nM | –
> 7.00 | > 7.00 | > 7.00 | – | – | Cn1cc2cc(-c3ccc4nc(N5CC[C@@H](NCC6CC6)C5)ccc4n3)c(O)c(F)c2n1 (single isomer, unassigned) [Compound 303] | < 100 nM | –
> 7.00 | > 7.00 | > 7.00 | – | – | Cn1cc2cc(-c3ccc4nc(N5CC[C@H](NCC6CC6)C5)ccc4n3)c(O)c(F)c2n1 (single isomer, unassigned) [Compound 304] | < 100 nM | –
> 7.00 | > 7.00 | > 7.00 | – | – | Cn1cc2cc(-c3ccc4nc(N5CC[C@@H](NC6CC6)C5)ccc4n3)c(O)c(F)c2n1 (single isomer, unassigned) [Compound 305] | < 100 nM | –
> 7.00 | > 7.00 | > 7.00 | – | – | Cn1cc2cc(-c3ccc4nc(N5CC[C@H](NC6CC6)C5)ccc4n3)c(O)c(F)c2n1 (single isomer, unassigned) [Compound 306] | < 100 nM | –
> 7.00 | > 7.00 | > 7.00 | – | – | Cc1nc2c(F)c(O)c(-c3ccc4nc(N5CC[C@@H](NC6CCC6)C5)ccc4n3)cc2o1 (single isomer, unassigned) [Compound 307] | < 100 nM | –
> 7.00 | > 7.00 | > 7.00 | – | – | Cc1nc2c(F)c(O)c(-c3ccc4nc(N5CC[C@H](NC6CCC6)C5)ccc4n3)cc2o1 (single isomer, unassigned) [Compound 308] | < 100 nM | –
> 7.00 | > 7.00 | > 7.00 | – | – | Cc1nc2c(C)c(O)c(-c3ccc4nc(N5CC[C@@H](NC6(C)CC6)C5)ccc4n3)cc2o1 (single isomer, unassigned) [Compound 310] | < 100 nM | –

pIC50 (HTT mRNA; [1]) | pIC50 (HTT mRNA; [2]) | pIC50 (Target C) | pIC50 (HTT mRNA; HTT canonical junction mRNA, RT-qPCR, read-out: HTT CJ (decrease in CJ mRNA levels, IC50)) | pIC50 (HTT mRNA; canonical junction qPCR panel, Table 4, read-out: HTT IC50 (decrease in CJ mRNA levels)) | Structure (SMILES) | AC50 (HTT mRNA; Homo sapiens, RT-qPCR) | AC50 (HTT mRNA; RT-qPCR)
> 7.00 | > 7.00 | 6.00 to 7.00 | – | – | Cc1nc2c(C)c(O)c(-c3ccc4nc(N5CC[C@H](NC6(C)CC6)C5)ccc4n3)cc2o1 (single isomer, unassigned) [Compound 311] | < 100 nM | –
> 7.00 | > 7.00 | > 7.00 | – | – | Cc1nc2c(C)c(O)c(-c3ccc4nc(N5CC[C@@H](NC(C)C)C5)ccc4n3)cc2o1 (single isomer, unassigned) [Compound 313] | < 100 nM | –
> 7.00 | > 7.00 | > 7.00 | – | – | Cc1nc2c(C)c(O)c(-c3ccc4nc(N5CC[C@H](NC(C)C)C5)ccc4n3)cc2o1 (single isomer, unassigned) [Compound 314] | < 100 nM | –
> 7.00 | > 7.00 | > 7.00 | – | – | Cn1cc2cc(-c3ccc4nc(N5CC[C@@H](NC6CCC6)C5)ccc4n3)c(O)c(F)c2n1 (single isomer, unassigned) [Compound 316] | < 100 nM | –
> 7.00 | > 7.00 | > 7.00 | – | – | Cn1cc2cc(-c3ccc4nc(N5CC[C@H](NC6CCC6)C5)ccc4n3)c(O)c(F)c2n1 (single isomer, unassigned) [Compound 317] | < 100 nM | –
> 7.00 | > 7.00 | > 7.00 | – | – | Cc1c(O)c(-c2ccc3nc(N4CC[C@@H](NC(C)C)C4)ccc3n2)cc2cn(C)nc12 (single isomer, unassigned) [Compound 319] | < 100 nM | –
> 7.00 | > 7.00 | > 7.00 | – | – | Cc1c(O)c(-c2ccc3nc(N4CC[C@H](NCC5CC5)C4)ccc3n2)cc2cn(C)nc12 (single isomer, unassigned) [Compound 321] | < 100 nM | –
> 7.00 | > 7.00 | > 7.00 | – | – | Cc1c(O)c(-c2ccc3nc(N4CC[C@@H](NCC5CC5)C4)ccc3n2)cc2cn(C)nc12 (single isomer, unassigned) [Compound 322] | < 100 nM | –
> 7.00 | > 7.00 | > 7.00 | – | – | Cc1nc2c(F)c(O)c(-c3ccc4nc(N5CC[C@@H](NCC6CC6)C5)ccc4n3)cc2o1 (single isomer, unassigned) [Compound 323] | < 100 nM | –
> 7.00 | > 7.00 | > 7.00 | – | – | Cc1nc2c(F)c(O)c(-c3ccc4nc(N5CC[C@H](NCC6CC6)C5)ccc4n3)cc2o1 (single isomer, unassigned) [Compound 324] | < 100 nM | –
> 7.00 | > 7.00 | > 7.00 | – | – | Cc1nc2c(F)c(O)c(-c3ccc4nc(N5CC[C@@H](NC(C)C)C5)ccc4n3)cc2o1 (single isomer, unassigned) [Compound 329] | < 100 nM | –
> 7.00 | > 7.00 | > 7.00 | – | – | Cc1nc2c(F)c(O)c(-c3ccc4nc(N5CC[C@H](NC(C)C)C5)ccc4n3)cc2o1 (single isomer, unassigned) [Compound 330] | < 100 nM | –
> 7.00 | > 7.00 | > 7.00 | – | – | Cn1cc2cc(-c3ccc4nc(N5CC[C@H](N[C@H]6C[C@H](F)C6)C5)ccc4n3)c(O)c(F)c2n1 (single isomer, unassigned) [Compound 347] | < 100 nM | –
6.00 to 7.00 | 6.00 to 7.00 | 6.00 to 7.00 | – | – | Cc1nc2cc(O)c(-c3ccc4nc(N5CC[C@@H](N[C@H]6C[C@H](F)C6)C5)ccc4n3)cc2o1 (single isomer, unassigned) [Compound 348] | 100 to 1000 nM | –
> 7.00 | > 7.00 | > 7.00 | – | – | Cn1cc2cc(-c3ccc4nc(N5CC[C@@H](N[C@H]6C[C@H](F)C6)C5)ccc4n3)c(O)c(F)c2n1 (single isomer, unassigned) [Compound 349] | < 100 nM | –
> 7.00 | > 7.00 | > 7.00 | – | – | Cc1nc2c(C)c(O)c(-c3ccc4nc(N5CC[C@H](N[C@H]6C[C@H](F)C6)C5)ccc4n3)cc2o1 (single isomer, unassigned) [Compound 351] | < 100 nM | –
> 7.00 | > 7.00 | > 7.00 | – | – | Cc1nc2c(C)c(O)c(-c3ccc4nc(N5CC[C@@H](N[C@H]6C[C@H](F)C6)C5)ccc4n3)cc2o1 (single isomer, unassigned) [Compound 352] | < 100 nM | –
